Our source for the Activity and ED50 values is ChEMBL document CHEMBL1154541, “Synthesis of H-bonding probes of alpha7 nAChR agonist selectivity” (Bioorg Med Chem Lett, 2009).

Each structure is given as a SMILES string. The source made the active and inactive calls. The rule behind the calls is not given here.

Holding throughout (assay type): functional, cell-based
Common to all, as to details: Oocyte

Assay [1] has as its target Neuronal acetylcholine receptor subunit alpha-7 (Homo sapiens) (UniProt P36544). Briefly: Agonist activity to alpha7 nAChR expressed in Xenopus oocytes assessed as response current at 100 uM by two-electrode voltage clamp relative to acetylcholine. For orientation: Two-electrode voltage clamp is typically applied to oocytes expressing channels or transporters.
Assay [2] addresses Neuronal acetylcholine receptor; alpha4/beta2 (Homo sapiens) (UniProt P17787+P43681). The assay is described as follows: Agonist activity to alpha4beta2 nAChR expressed in Xenopus oocytes assessed as response current at 100 uM by two-electrode voltage clamp relative to acetylcholine.
Assay [3] concerns the target Acetylcholine receptor subunit alpha (Homo sapiens) (UniProt P02708). Briefly: Agonist activity to alpha-1-beta-1-epsilon-delta nAChR expressed in Xenopus oocytes assessed as response current at 100 uM by two-electrode voltage clamp relative to acetylcholine.
Assay [4] deals with Neuronal acetylcholine receptor subunit alpha-7 (Homo sapiens) (UniProt P36544). Briefly: Agonist activity to alpha7 nAChR expressed in Xenopus oocytes assessed as response current by two-electrode voltage clamp relative to acetylcholine.
Chain of Neuronal acetylcholine receptor subunit alpha-7 (Homo sapiens) (P36544 whole entry): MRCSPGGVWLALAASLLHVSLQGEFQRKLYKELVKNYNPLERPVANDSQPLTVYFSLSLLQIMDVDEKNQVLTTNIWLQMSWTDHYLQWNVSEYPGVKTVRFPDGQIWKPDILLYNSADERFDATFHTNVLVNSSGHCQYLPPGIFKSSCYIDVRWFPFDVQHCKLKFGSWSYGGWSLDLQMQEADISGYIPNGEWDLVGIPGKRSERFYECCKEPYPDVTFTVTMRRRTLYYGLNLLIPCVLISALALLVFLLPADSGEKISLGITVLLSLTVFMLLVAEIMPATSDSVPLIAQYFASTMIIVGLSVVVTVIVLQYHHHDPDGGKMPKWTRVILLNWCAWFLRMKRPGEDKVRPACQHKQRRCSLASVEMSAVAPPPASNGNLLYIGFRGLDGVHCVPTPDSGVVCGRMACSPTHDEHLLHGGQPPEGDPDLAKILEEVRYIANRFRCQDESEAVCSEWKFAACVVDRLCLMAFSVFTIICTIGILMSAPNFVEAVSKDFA
Assay [5] concerns the target Neuronal acetylcholine receptor; alpha3/beta4 (Homo sapiens) (UniProt P30926+P32297). Briefly: Agonist activity to alpha3beta4 nAChR expressed in Xenopus oocytes assessed as response current at 100 uM by two-electrode voltage clamp relative to acetylcholine.
For assay [6], the target named is Neuronal acetylcholine receptor subunit alpha-7 (Homo sapiens) (UniProt P36544). Briefly: Agonist activity to alpha7 nAChR expressed in Xenopus oocytes assessed as response current at 1mM by two-electrode voltage clamp relative to acetylcholine.

Chain of Acetylcholine receptor subunit alpha (Homo sapiens) (P02708 whole entry): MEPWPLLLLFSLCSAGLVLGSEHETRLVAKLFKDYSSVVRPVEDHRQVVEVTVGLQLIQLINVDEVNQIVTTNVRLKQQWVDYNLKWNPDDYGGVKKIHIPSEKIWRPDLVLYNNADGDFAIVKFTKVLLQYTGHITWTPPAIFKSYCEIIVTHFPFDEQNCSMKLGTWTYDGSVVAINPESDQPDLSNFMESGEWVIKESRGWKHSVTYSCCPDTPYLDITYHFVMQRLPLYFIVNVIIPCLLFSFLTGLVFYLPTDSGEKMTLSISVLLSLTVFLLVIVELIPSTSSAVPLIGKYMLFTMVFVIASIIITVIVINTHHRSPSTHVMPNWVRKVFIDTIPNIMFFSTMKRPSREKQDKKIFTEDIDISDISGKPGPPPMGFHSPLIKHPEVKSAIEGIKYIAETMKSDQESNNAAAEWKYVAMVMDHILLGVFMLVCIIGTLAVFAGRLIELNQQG

Turning to `C(=C1/CCCN=C1c1cccnc1)/c1cccnc1`, the Activity in assay [1] was 35%. For the same molecule, the result in assay [2] and in assay [3] was inactive. Moreover, in assay [4], the ED50 amounted to 100 µM.

With `C(=C1/CCCN=C1c1cccnc1)/c1ccc[nH]1`, the Activity in assay [1] came to 40%. The result in assay [2] and in assay [3] was inactive.

On to `C(=C1/CCCN=C1c1cccnc1)/c1cc[nH]c1`, for which the Activity turned out to be 40% in assay [1] and 5% in assay [5].

As for `C(=C1/CCCN=C1c1cccnc1)/c1ccncc1`, the Activity in assay [6] is less than 20%. The outcome in assay [2] and in assay [3] was inactive.

Consider `C(=C1/CCCN=C1c1cccnc1)/c1ccccn1`, for which, in assay [6], the Activity is less than 20%. Also, the outcome in assay [2] and in assay [3] was inactive.
